The source of these data is PubChem BioAssay (NCI).

For this test, the system named is MDA-MB-468 breast. The test is described as follows: NCI-60 cell line screen, 48 h.

Where “and” joins values, the source holds several entries; their conditions need not be identical. Equal values may be shown once.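 Each compound was tested at five concentrations against cells in 96-well plates for 48 hours. Here, GI50 denotes the concentration required for 50% inhibition of growth. TGI: total growth inhibition.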

For the compound `CCn1c(=O)c(Oc2ccc(F)cc2F)cc2cnc(NC3CCOCC3)nc21`, the GI50 is above 25 µM and the TGI is above 25 µM.
On to `c1ccc([P+](c2ccccc2)(c2ccccc2)c2ccc3c4ccc([P+](c5ccccc5)(c5ccccc5)c5ccccc5)c5cccc(c6cccc2c63)c54)cc1`, for which the GI50 is 0.838 µM and the TGI stood at 7.46 µM.
For `COc1cc(/C=C/c2cc(/C=C/c3ccc(O)c(OC)c3)n(-c3c(Cl)cccc3Cl)c(=O)n2)ccc1O`, in that order: 2.76 µM and 7.18 µM.
For `CCNC(=O)N1CCc2cc(OC)c(OCCc3ccc(OC)c(N)c3)cc2C1c1ccc(C)cc1C` (stereo not drawn), in that order: 0.301 µM and 15.8 µM.
For the compound `O=C(Nc1ccc(Br)cc1)Nc1nc2ccc([N+](=O)[O-])cc2s1`, the GI50 is 1.67 µM and the TGI is 3.29 µM.
Take `COc1cc2c3c(n(CCCNC4CCC4)c(=O)c2cc1OC)-c1cc2c(cc1C3=O)OCO2`: the GI50 is 1.41 µM and the TGI stood at 3.22 µM.
Consider `C#CCn1cnc2cnc(Nc3cccc(NC(=O)CCl)c3)nc21`, for which the GI50 was 8.13 µM and the TGI amounted to 22.8 µM.
For `Cn1ncc(NC(=O)c2nc(-c3c(F)cccc3F)sc2N)c1N1CC[C@@H](N)[C@H](F)CC1`, in that order: 9.7 µM and 26.8 µM.
`C=C1C(=O)O[C@H]2[C@H]1CC/C(COC(=O)/C=C/C(=O)NCc1ccc(Cn3c(=O)sn(-c4ccccc4)c3=O)cc1)=C\CC[C@@]1(C)O[C@@H]21`: the GI50 is 1.35 µM and the TGI is 3.69 µM.
Consider `CNC(=O)NCC1OC(n2cnc3c(NC(=O)Nc4ccccc4)ncnc32)C(O[Si](C)(C)C(C)(C)C)C1CC(=O)N(C)OC` (stereo not drawn), for which the GI50 is 1.87 µM and the TGI turned out to be 6.38 µM.
In the same order, the values of `O=C(Nc1nc(-c2ccc(Cl)cc2)cs1)c1cc(-c2ccc(Br)cc2)nc2ccc(Cl)cc12` are 10.9 µM and 78.3 µM.
For `CC1(C)C(N(O)C(=O)Nc2ccc(Cl)cc2)N(c2ccc(Cl)cc2)C(=O)N1CC(=O)N/N=C/C=C/c1ccc([N+](=O)[O-])o1` (stereo not drawn), in that order: 1.62 µM and 5.35 µM.
On to `COc1ccc(CC(C)=C(c2ccc(OCCN3CCCCCC3)cc2)c2ccc(OCCN3CCCCCC3)cc2)cc1`, for which the GI50 is 0.176 µM and the TGI stood at 0.667 µM.
In the case of `CC1(C)CN(c2cc(C(F)(F)F)cc3cncn23)CCC12NC(=O)NC2=O` (stereo not drawn), the GI50 was 22.5 µM and the TGI was 82.9 µM.
Regarding `CCO/C=N/C1=C(C#N)C(c2ccc(OC)cc2)c2sc3c(F)cccc3c2O1` (stereo not drawn), the GI50 was 2.41 µM and the TGI stood at 19.4 µM.
For `CCOC(=O)N1C/C(=C/c2ccc(Cl)cc2)C(=O)/C(=C/c2ccc(Cl)cc2)C1`, in that order: 1.96 µM and 5 µM.
With `C[n+]1c(-c2ccccc2)c2cc(N)ccc2c2ccccc21`, the GI50 is 0.224 µM and the TGI came out at 1.53 µM.
In the case of `CCN(CC)Cc1cc(Nc2c3ccc(Cl)cc3nc3ccc(OC)cc23)ccc1O`, the GI50 was 1.71 µM and the TGI came out at 3.67 µM.
`COc1cc2c(cc1I)-c1c(cc(OC)c(OC)c1OC)CC[C@@H]2NC(C)=O`: the GI50 was 0.244 µM and the TGI was found to be 0.738 µM.
In the case of `Nc1nc(N)c(N=Nc2ccccc2)c(-c2ccccc2)n1`, the GI50 is 1.06 µM and the TGI was determined as 11.4 µM.
For `C#C[C@]1(O)CC[C@H]2[C@@H]3CC=C4c5sc(Nc6nc(C)cc(OC)n6)nc5CC[C@]4(C)[C@H]3CC[C@@]21C`, in that order: 4.47 µM and above 100 µM.
As for `O=C(NNc1nc2cc(F)c(F)cc2n2cccc12)c1ccncn1`, the GI50 is 0.241 µM and the TGI was 1.58 µM.
For `CC(C)=CCC/C(C)=C/CC/C(C)=C/CC/C(C)=C/CSC[C@H](NC(=O)CCCCCN1CCN(C)CC1)C(=O)NC1CCCCC1`, the GI50 is 1.97 µM and the TGI is 4.49 µM.
On to `COC(=O)[C@@H](C)C[C@H](Cc1ccc2ccccc2c1)NC(=O)c1csc([C@@H](C[C@H](C(C)C)N(C)C(=O)[C@@H](NC(=O)[C@H]2CCCCN2C)C(C)C)OC(C)=O)n1`, for which the GI50 was 0.00683 µM and the TGI was above 25 µM.
For `O=C(c1ccc(Cl)cc1)c1no[n+]([O-])c1C(=O)c1ccc(Cl)cc1`, the GI50 is 9.22 µM and the TGI worked out at 27.7 µM.
For `Nc1nonc1C(=Nc1ccc(F)c(Cl)c1)NO`, in that order: 29.8 µM and above 100 µM.
Regarding `Clc1ccc2c(c1)C(Br)c1cc(Cl)cc(Cl)c1-2` (stereo not drawn), the GI50 was 35.6 µM and the TGI was above 100 µM.
Regarding `COc1cc2c(cc1OCCCCCn1c(-c3ccc(OCc4ccccc4)cc3)nc3cc(N4CCOCC4)ccc31)N=C[C@@H]1CCCN1C2=O`, the GI50 is 0.936 µM and the TGI came out at 5.1 µM.
For `N#Cc1c(-c2ccccc2)cc(-c2ccccc2)n(CCCC(=O)NO)c1=O`, the GI50 was 1.46 µM and the TGI is 4.56 µM.
With `COc1ccc(/C=C/C(=O)c2cc3c(N)c(C(=O)Nc4cccc(Cl)c4C)sc3nc2C)cc1`, the GI50 is 0.176 µM and the TGI is 2.45 µM.
For `c1ccc2cc(C[n+]3ccn(CCCCCCCCCCCCn4cc[n+](Cc5ccc6ccccc6c5)c4)c3)ccc2c1`, in that order: 0.494 µM and 1.28 µM.
As for `COc1ccc(-c2cc(-c3ccccc3)nc(SCCCC(=O)NO)n2)cc1OC`, the GI50 was 1.44 µM and the TGI was 3.62 µM.
As for `COc1cc2ccnc(C=O)c2cc1OC`, the GI50 is 31.9 µM and the TGI was above 100 µM.
For `CC(=O)/C=C/c1ccc(OCc2ccc(C(C)(C)C)cc2)cc1`, in that order: 33.9 µM and above 1000 µM.
On to `CCNCc1c(-c2cccc(OC(F)(F)F)c2)[nH]c2ccc(N3CCCC3)cc2c1=O`, for which the GI50 was 2.22 µM and the TGI was 5.74 µM.
With `O=C1[C@@H]2Cc3c([nH]c4ccccc34)[C@H](c3c(Cl)cccc3Cl)N2C(=O)CN1C1CCN(Cc2ccccc2)CC1`, the GI50 is 2.09 µM and the TGI turned out to be 4.27 µM.
In the same order, the values of `COc1cc(-c2ccc(-c3ccc(C(=N)N)cc3)s2)cc(OC)c1OC` are 1.64 µM and 3.15 µM.
As for `O=c1c2cc(F)ccc2sc2c(Nc3ccncc3)nc3ccccc3c12`, the GI50 was 1.78 µM and the TGI came out at 3.5 µM.
Take `C[C@@]1(C(=O)Nc2ccc(F)nc2)CCCN1c1nc(Nc2cc(C3CC3)[nH]n2)c2cccn2n1`: the GI50 is 0.25 µM and 0.526 µM; the TGI stood at 4.37 µM.
